These results are taken from US9056876B2, “Substituted 1H-pyrazolo[3′,4′,4,5]thieno[2,3-b]pyridin-3-amine analogs as positive allosteric modulators of the muscarinic acetylcholine receptor M4” (VANDERBILT UNIVERSITY, priority 2011, dated 2015).

The test system of one data set is animal models. Particulars: cited from earlier work.
Data set [1] relates to Alzheimer's disease patients. As to conditions: cited from earlier work.
The conditions of data set [2]: in vivo; cited from earlier work.
The target in another data set is T1, mAChR M4 (UniProt P08173).
T1 construct: hM1 and hM4 cDNAs were purchased from Missouri S&T cDNA Resource
T1 sequence (P08173 1-479): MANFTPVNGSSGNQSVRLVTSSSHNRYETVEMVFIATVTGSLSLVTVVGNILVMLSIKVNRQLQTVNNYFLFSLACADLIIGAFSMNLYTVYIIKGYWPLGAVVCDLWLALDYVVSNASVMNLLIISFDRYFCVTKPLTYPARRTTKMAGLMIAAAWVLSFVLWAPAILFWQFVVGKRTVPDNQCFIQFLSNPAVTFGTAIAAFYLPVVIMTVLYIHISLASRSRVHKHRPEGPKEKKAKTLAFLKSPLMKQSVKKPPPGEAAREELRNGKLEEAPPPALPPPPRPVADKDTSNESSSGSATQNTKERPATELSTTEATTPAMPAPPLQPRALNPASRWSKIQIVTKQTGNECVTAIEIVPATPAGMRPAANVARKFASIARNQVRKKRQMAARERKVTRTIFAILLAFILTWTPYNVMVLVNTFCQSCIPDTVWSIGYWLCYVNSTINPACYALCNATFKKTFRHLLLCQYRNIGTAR
The experiment in a line: mAChR M4 cell-based functional assay (calcium mobilization, Fluo-4, FDSS). Particulars: for Emax (%)*: % ACh maximum at 30 μM; for pEC50: positive allosteric modulator activity, EC20 acetylcholine response; for pEC50 / EC50: CHO-K1 cells; for EC50: positive allosteric modulator activity: concentration-dependent increase in the EC20 acetylcholine response, >10 μM estimated for low potency (no plateau). In a few lines: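 CHO-K1 cells stably expressing hM4 or rM4 with chimeric Gqi5, loaded with Fluo-4 AM for 50 min at 37° C. Calcium read on FDSS 6000 over 300 s: compound added at 4 s, acetylcholine EC20 at 144 s and EC80 at 230 s. Agonist, PAM (EC20 increase) and antagonist (EC80 decrease) values fitted by four-parameter logistic.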

Some results are limits rather than exact numbers.

Take `CCCCCCOc1nsnc1C1=CCCN(C)C1` [xanomeline]: the catalepsy result with animal models (in vivo) was “without causing catalepsy”. Also, the “activity in animal models” value with animal models (profiles similar to known antipsychotic drugs) is “active in animal models”. Moreover, the “psychotic behavioral symptoms (delusions, suspiciousness, vocal outbursts, hallucinations)” value in data set [1] is “reduce psychotic behavioral symptoms”.
For `Nc1c2c(nc3ccccc13)CCCC2` [tacrine], the “elevated liver transaminases, share of patients” value in data set [2] is listed as “about 30%”.
What is called pEC50 is the negative decadic logarithm of the EC50, by convention in mol/L. As usually defined, the EC50 is the midpoint of the concentration-response curve. Consider `Cc1nc2sc3c(NCc4ccc(F)c(F)c4)nn(C)c3c2c(C)c1Cl` [Compound 27, 7-chloro-N-(3,4-difluorobenzyl)-1,6,8-trimethyl-1H-pyrazolo[3′,4′:4,5]thieno[2,3-b]pyridin-3-amine], for which, on mAChR M4, the “Emax (%)*” value stood at 46%, the pEC50 is less than 5.00 and the EC50 was greater than 10 µM.
Take `COc1ccc(CNc2nn(C)c3c2sc2nc(C)cc(C)c23)c(OC)c1` [Compound 61, N-(2,4-dimethoxybenzyl)-1,6,8-trimethyl-1H-pyrazolo[3′,4′:4,5]thieno[2,3-b]pyridin-3-amine]: on mAChR M4, the “Emax (%)*” value was found to be 33%, the pEC50 is recorded as 6.35 and the EC50 is 0.45 µM.
`Cc1cc(C)c2c(n1)sc1c(NCc3[nH]cnc3C)nn(C)c12` [Compound 92, 1,6,8-trimethyl-N-((4-methyl-1H-imidazol-5-yl)methyl)-1H-pyrazolo[3′,4′:4,5]thieno[2,3-b]pyridin-3-amine]: on mAChR M4, the “Emax (%)*” value came out at 50%, the pEC50 amounted to 6.37 and the concentration for a half-maximal effect (EC50) is 0.43 µM.
On to `Cc1cc(C)c2c(n1)sc1c(NC3CCOCC3)nn(C)c12` [Compound 65, 1,6,8-trimethyl-N-(tetrahydro-2H-pyran-4-yl)-1H-pyrazolo[3′,4′:4,5]thieno[2,3-b]pyridin-3-amine], for which, at mAChR M4, the “Emax (%)*” value is 78%, the pEC50 is 6.00 and the EC50 was 1 µM.
With `Cc1nc2sc3c(NCc4ccc(F)cc4)nn(C)c3c2c(C)c1Cl` [Compound 22, 7-chloro-N-(4-fluorobenzyl)-1,6,8-trimethyl-1H-pyrazolo[3′,4′:4,5]thieno[2,3-b]pyridin-3-amine], at mAChR M4, the “Emax (%)*” value was found to be 57%, the pEC50 is reported as less than 5.00 and the EC50 was greater than 10 µM.
Regarding `Cc1cc(C)c2c(n1)sc1c(NCc3ccoc3)nn(C)c12` [Compound 81, N-(furan-3-ylmethyl)-1,6,8-trimethyl-1H-pyrazolo[3′,4′:4,5]thieno[2,3-b]pyridin-3-amine], at mAChR M4, the “Emax (%)*” value was 77%, the negative-log EC50 (pEC50) came to 7.16 and the EC50 is 0.069 µM.
In the case of `Cc1cc(C)c2c(n1)sc1c(NCc3cccs3)nn(CCO)c12` [Compound 101, 2-(6,8-dimethyl-3-((thiophen-2-ylmethyl)amino)-1H-pyrazolo[3′,4′:4,5]thieno[2,3-b]pyridin-1-yl)ethanol], on mAChR M4, the “Emax (%)*” value was found to be 73%, the pEC50 is recorded as 7.31 and the EC50 is 0.049 µM.
For the compound `Cc1cc(C)c2c(n1)sc1c(NCc3cc(C)on3)nn(C)c12` [Compound 97, 1,6,8-trimethyl-N-((5-methylisoxazol-3-yl)methyl)-1H-pyrazolo[3′,4′:4,5]thieno[2,3-b]pyridin-3-amine], on mAChR M4, the “Emax (%)*” value is 59%, the pEC50 was 5.43 and the concentration for a half-maximal effect (EC50) is 3.7 µM.
With `Cc1ccc2c(n1)sc1c(N)n[nH]c12` [Compound 149, 6-methyl-1H-pyrazolo[3′,4′:4,5]thieno[2,3-b]pyridin-3-amine], at mAChR M4, the pEC50 is less than 5.00 and the EC50 was greater than 10 µM.
Regarding `Cc1nc2sc3c(NCc4ccccc4)nn(C)c3c2c(C)c1Cl` [Compound 17, N-benzyl-7-chloro-1,6,8-trimethyl-1H-pyrazolo[3′,4′:4,5]thieno[2,3-b]pyridin-3-amine], at mAChR M4, the “Emax (%)*” value came to 39%, the pEC50 is given as less than 5.00 and the EC50 was greater than 10 µM.
With `Cc1cc(C)c2c(n1)sc1c(NC3CCCC3)n[nH]c12` [Compound 10, N-cyclopentyl-6,8-dimethyl-1H-pyrazolo[3′,4′:4,5]thieno[2,3-b]pyridin-3-amine], at mAChR M4, the “Emax (%)*” value was found to be 55%, the pEC50 was found to be 5.76 and the EC50 is 1.74 µM.
Take `Cc1cc(C)c2c(n1)sc1c(NCc3csc(C)n3)nn(C)c12` [Compound 82, 1,6,8-trimethyl-N-((2-methylthiazol-4-yl)methyl)-1H-pyrazolo[3′,4′:4,5]thieno[2,3-b]pyridin-3-amine]: on mAChR M4, the “Emax (%)*” value is 63%, the pEC50 stood at 6.41 and the EC50 is 0.39 µM.
As for `Cc1cc(C)c2c(n1)sc1c(NC(=O)c3ccc(F)cc3)nn(C)c12` [Compound 154, 4-fluoro-N-(1,6,8-trimethyl-1H-pyrazolo[3′,4′:4,5]thieno[2,3-b]pyridin-3-yl)benzamide], on mAChR M4, the pEC50 is on record as less than 5.00 and the EC50 was greater than 10 µM.
